“And” between values parts separate entries of the source, which are not always exact repeats. Equal values may be shown once.
Tests used:
[1] = molecular target: T1, Melatonin receptor type 1A (Homo sapiens, UniProt P48039); test: Displacement of 2-[125I]iodoMLT from human MT1 receptor expressed in mouse NIH3T3 cells incubated for 90 mins by Cheng-Prusoff equation analysis; format: cell-based
[2] = molecular target: T2, Melatonin receptor type 1B (Homo sapiens, UniProt P49286); test: Displacement of 2-[125I]iodoMLT from human MT2 receptor expressed in mouse NIH3T3 cells incubated for 90 mins by Cheng-Prusoff equation analysis; format: cell-based
T2 sequence (P49286 whole entry): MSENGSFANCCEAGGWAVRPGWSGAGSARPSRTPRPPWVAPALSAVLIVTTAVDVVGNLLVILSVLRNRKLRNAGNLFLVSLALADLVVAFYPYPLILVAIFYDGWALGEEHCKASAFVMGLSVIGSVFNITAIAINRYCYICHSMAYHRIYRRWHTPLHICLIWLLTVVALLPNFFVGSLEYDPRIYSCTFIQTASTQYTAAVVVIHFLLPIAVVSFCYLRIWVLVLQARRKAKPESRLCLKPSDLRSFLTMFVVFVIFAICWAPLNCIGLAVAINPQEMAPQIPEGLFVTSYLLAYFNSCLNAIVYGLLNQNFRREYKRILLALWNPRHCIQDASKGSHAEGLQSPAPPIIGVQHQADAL

[3] = molecular target: T1, Melatonin receptor type 1A; test: Binding affinity to MT1 receptor (unknown origin) assessed as inhibition constant
[4] = molecular target: T2, Melatonin receptor type 1B; test: Binding affinity to MT2 receptor (unknown origin) assessed as inhibition constant
[5] = molecular target: T1, Melatonin receptor type 1A; test: Displacement of 2-[125I]iodoMLT from recombinant human MT1 receptor expressed in African green monkey COS-7 cells incubated for 1.5 hrs by Cheng-Prusoff equation analysis; format: cell-based
[6] = molecular target: T1, Melatonin receptor type 1A; test: Displacement of 2-[125I]iodoMLT from human MT1 receptor stably expressed in CHO cells by Cheng-Prusoff equation analysis; format: cell-based
[7] = molecular target: T2, Melatonin receptor type 1B; test: Displacement of 2-[125I]iodoMLT from human MT2 receptor stably expressed in CHO cells by Cheng-Prusoff equation analysis; format: cell-based
[8] = molecular target: T1, Melatonin receptor type 1A; test: Displacement of 2-[125I]iodoMLT from human MT1 receptor stably expressed in CHO cells incubated for 60 mins by Cheng-Prusoff equation analysis; format: cell-based

T1 sequence (P48039 whole entry): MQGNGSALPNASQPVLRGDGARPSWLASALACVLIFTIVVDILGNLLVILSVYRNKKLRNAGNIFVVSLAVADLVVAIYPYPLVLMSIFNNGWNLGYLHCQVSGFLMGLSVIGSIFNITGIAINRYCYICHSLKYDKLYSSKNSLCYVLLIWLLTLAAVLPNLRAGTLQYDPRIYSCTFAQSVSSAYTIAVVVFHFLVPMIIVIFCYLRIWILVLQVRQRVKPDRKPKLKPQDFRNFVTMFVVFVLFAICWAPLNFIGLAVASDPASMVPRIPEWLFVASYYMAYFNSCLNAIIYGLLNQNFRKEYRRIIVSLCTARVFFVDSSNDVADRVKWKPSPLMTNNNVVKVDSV

Ki [1] | Ki [2] | Structure (SMILES) | also measured
0.0219 nM | 0.038 nM | COc1ccc2[nH]c(-c3ccccc3)c(CCNC(C)=O)c2c1 | –
– | – | CC(=O)NCCc1c(-c2cccc(O)c2)oc2ccc3c(c12)CCCO3 | Ki [3]: 0.87 nM; Ki [4]: 0.21 nM
– | – | COc1ccc2[nH]c(Cc3ccccc3)c(CCNC(C)=O)c2c1 | Ki [5]: 31.6 nM
36.3 nM | 1.1 nM | COc1ccc2[nH]c(-c3ccc4ccccc4c3)c(CCNC(C)=O)c2c1 | –
12 nM and 33.9 nM and 12.9 nM | 0.309 nM and 0.575 nM and 0.126 nM | COc1ccc2c(c1)c(CCNC(C)=O)c(-c1cccc3ccccc13)n2C | Ki [6]: 40.7 nM and 97.7 nM and 33.1 nM; Ki [7]: 0.302 nM and 0.38 nM and 0.288 nM
11.5 nM | 2.95 nM | COc1ccc2[nH]c(Oc3ccccc3)c(CCNC(C)=O)c2c1 | –
0.977 nM | 0.0631 nM | COc1ccc2[nH]c(Sc3ccccc3)c(CCNC(C)=O)c2c1 | –
– | – | COc1cccc(N(CCNC(C)=O)c2cccc(CO)c2)c1 | Ki [8]: > 100 nM
0.17 nM | 0.0603 nM | COc1ccc2[nH]c(-c3cccnc3)c(CCNC(C)=O)c2c1 | –
14.8 nM | 0.295 nM | COc1ccc2[nH]c(-c3cccc4[nH]ccc34)c(CCNC(C)=O)c2c1 | –
16.2 nM | 5.01 nM | COc1ccc2[nH]c(-c3ccc(-c4ccccc4)cc3)c(CCNC(C)=O)c2c1 | –
15.5 nM | 0.191 nM | COc1ccc2[nH]c(-c3cccc4ccccc34)c(CCNC(C)=O)c2c1 | –
14.8 nM | 2.69 nM | COc1ccc2[nH]c(-c3cccc4ncccc34)c(CCNC(C)=O)c2c1 | –

Source: ChEMBL document CHEMBL5352431 (Eur J Med Chem, 2022)
